Laboratory results as given in patent US7649012B2, “Compounds, pharmaceutical compositions containing same, and methods of use for same” (FASgen, Inc., priority 2002, dated 2010).
≈ marks a conversion by molar mass, not a printed value. Where two headings read alike, the source gives them in different places.

Assays:
[1] = system: MCF-7 human breast cancer cells; assay: [14C]acetate incorporation into total lipids; format: cell-based; details: for IC50: Homo sapiens, MCF7, [14C]acetate incorporation into lipids; for 14C(IC50): [14C]acetate incorporation into lipids
Summary of the method: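 MCF-7 cells plated at 5×10^4 cells/well and exposed to compound for 4 h, then pulsed with 0.25 μCi [14C]acetate for 2 h. Lipids extracted with chloroform:methanol and counted by scintillation in triplicate. IC50 is the concentration giving 50% reduction in incorporation versus vehicle controls.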

[2] = system: MCF-7 human breast cancer cells; assay: XTT cytotoxicity assay; format: cell-based; details: MCF7, MCF-7, 72 hours, some cells marked (M)
Description: The XTT assay is a non-radioactive alternative for the [^51 Cr] release cytotoxicity assay. XTT is a tetrazolium salt that is reduced to a formazan dye only by metabolically active, viable cells. The reduction of XTT is measured spectrophotometrically as OD490-OD650.
To measure the cytotoxicity of specific compounds against cancer cells, 9×10^3 MCF-7 human breast cancer cells, obtained from the American Type Culture Collection are plated per well in 96 well plates in DMEM medium with 10% fetal bovine serum, insulin, penicillin, and streptomycin. Following overnight culture at 37° C. and 5% CO2, the compounds to be tested, dissolved in DMSO, are added to the wells in 1 μl volume at the following concentrations: 80, 40, 20, 10, 5, 2.5, 1.25, and 0.625 μg/ml in triplicate. Additional concentrations are tested if required. 1 μl of DMSO is added to triplicate wells are the vehicle control. C75 is run at 40, 20, […], and 5 μg/ml in triplicate as positive controls. After 72 hours of incubation, cells are incubated for 4 hours with the XTT reagent as per manufacturer's instructions (Cell Proliferation Kit II (XTT) Roche). Plates are read at OD490 and OD650 on a Molecular Devices SpectraMax Plus Spectrophotometer. Three wells containing the XTT reagent without cells serve as the plate blank. XTT data are reported as OD490-OD650-Averages and standard error of the mean are computed using SOFTmax Pro software (Molecular Dynamics).
The IC50 for the compounds is defined as the concentration of drug leading to a 50% reduction in OD490-OD650 compared to controls. The OD490-OD650 are computed by the SOFTmax PRO software (Molecular Devices) for each compound concentration. IC50 is calculated by linear regression, plotting the FAS activity as percent of control versus drug concentrations. Linear regression, best-fit line, r^2, and 95% confidence intervals are determined using Prism Version 3.0 (Graph Pad Software).

[3] = Weight loss screen in Balb/C mice; format: in vivo; details: for Deaths in weight loss screen: 60 mg/kg; for change in vivo at 30 mg/kg / change in vivo at 60 mg/kg: Mus musculus, read-out: Weight Loss; for change in vivo at 60 mg/kg: ip, 60 mg/kg intraperitoneally
Description: Balb/C mice (Jackson Labs) are utilized for the initial weight loss screening. Animals are housed in temperature and 12 hour day/night cycle rooms and fed mouse chow and water ad lib. Three mice are utilized for each compound tested with vehicle controls in triplicate per experiment. For the experiments, mice are housed separately for each compound tested three mice to a cage. […] Mice are observed and weighed daily; average weights and standard errors are computed with Excel (Microsoft). The experiment continues until treated animals reach their pretreatment weights. […]

[4] = system: Enterococcus faecalis (ATCC # 29212); assay: Broth microdilution MIC; format: cell-based; details: for MIC: Enterococcus faecalis, ATCC29212
Summary of the method: (§1)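 Run in Mueller Hinton Broth and Trypticase Soy Broth, with inoculum at 0.5 McFarland diluted 1:10 and compounds in DMSO at 25 to 0.78 ug/ml (final well concentrations not given) in duplicate. OD600 read after 24 h at 37° C; MIC derived by linear regression.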

[5] = system: Escherichia coli (ATCC # 25922); assay: Broth microdilution MIC; format: cell-based; details: for MIC: Escherichia coli, ATCC25922
Summary of the method: as §1

[6] = system: Pseudomonas aeruginosa (ATCC # 27853); assay: Broth microdilution MIC; format: cell-based; details: for PSAE/MH(MIC): Mueller Hinton Broth; for PSAE/Tsoy(MIC): Trypticase Soy Broth
Summary of the method: as §1

[7] = system: Staphylococcus aureus (ATCC # 29213); assay: Broth microdilution MIC; format: cell-based; details: for MIC: Staphylococcus aureus, ATCC29213
Summary of the method: as §1

[8] = Trypticase Soy Broth, read-out: EF/Tsoy(MIC)
[9] = Mueller Hinton Broth, read-out: Ecoli/MH(MIC)
[10] = Mueller Hinton Broth, read-out: SA/MH(MIC)
[11] = Trypticase Soy Broth, read-out: SA/Tsoy(MIC)
[12] = Mueller Hinton Broth, read-out: EF/MH(MIC)
[13] = Trypticase Soy Broth, read-out: Ecoli/Tsoy(MIC)

SMILES | IC50 [1] | IC50 [2] | MIC [4, 8] | MIC [5, 9] | Ecoli/Tsoy(MIC) ([5]; Trypticase Soy Broth) | PSAE/MH(MIC) [6] | PSAE/Tsoy(MIC) [6] | MIC [7, 10] | MIC [7, 11] | Ecoli/MH(MIC) ([5]; Mueller Hinton Broth) | MIC [4, 12] | change in vivo at 60 mg/kg ([3]; 48 h, day2) | MIC [5, 13] | also measured
C#CCOC1CC(=O)S[C@]1(C)CCCCCC (mixture of isomers) | 21.9 ± 1.5 µg/mL | 8.9 ± 2.3 µg/mL | 83 µg/mL | 203 µg/mL | Neg | Neg | Neg | 53 µg/mL | 80 µg/mL |  |  |  |  | Deaths in weight loss screen ([3]; day2, three mice): 3 of 3 dead; change in vivo at 30 mg/kg ([3]; 72 h, 30 mg/kg, day3): 5.9%; EF/MH(MIC) ([4]; Mueller Hinton Broth): Neg
C=CCOC1=CC(=O)S[C@]1(C)CCCCCC (racemic) |  | 9 ± 1.1 µg/mL (≈ 35.4 µM) | 158 µg/mL (≈ 621 µM) |  | Neg | Neg | Neg | 73 µg/mL (≈ 287 µM) | 54 µg/mL (≈ 212 µM) | Neg |  |  |  | 14C(IC50) [1]: Neg; Deaths in weight loss screen ([3]; day2, three mice): 2 of 3 dead; change in vivo at 30 mg/kg ([3]; 48 h, 30 mg/kg, day2): 8.8%; EF/MH(MIC) ([4]; Mueller Hinton Broth): Neg
C=CCOC1=CC(=O)S[C@]1(C)CCCCCCCC (racemic) |  | 14.5 ± 1.5 µg/mL (≈ 51.3 µM) | 238 µg/mL (≈ 843 µM) |  | Neg | Neg | Neg | 127 µg/mL (≈ 450 µM) | 85 µg/mL (≈ 301 µM) | Neg | 238 µg/mL (≈ 843 µM) |  |  | 14C(IC50) [1]: Neg; Deaths in weight loss screen ([3]; day3, three mice): 3 of 3 dead; change in vivo at 30 mg/kg ([3]; 48 h, 30 mg/kg, day2): 4.7%
CCCCCCCC[C@@]1(C)SC(=O)C=C1OCC(=O)OCC (racemic) | 10.8 ± 5.8 µg/mL (≈ 32.9 µM) | 35.3 ± 10.4 µg/mL (≈ 107 µM) |  |  | Neg | Neg | Neg |  | 83 µg/mL (≈ 253 µM) | Neg | 86 µg/mL (≈ 262 µM) |  |  | change in vivo at 30 mg/kg ([3]; 24 h): 4.5%; change in vivo at 60 mg/kg ([3]; 24 h, day1): 1.8%; EF/Tsoy(MIC) ([4]; Trypticase Soy Broth): Neg; SA/MH(MIC) ([7]; Mueller Hinton Broth): Neg
CCCCCC[C@@]1(C)SC(=O)C=C1OCC(=O)NCC(=O)O (racemic) | 6.6 µg/mL (≈ 20 µM) | > 80 µg/mL | 173 µg/mL (≈ 525 µM) |  |  | Neg | Neg | 78 µg/mL (≈ 237 µM) | 225 µg/mL (≈ 683 µM) | Neg | 121 µg/mL (≈ 367 µM) | 3.5% | 235 µg/mL (≈ 713 µM) | 
CCCCCCCC[C@@]1(C)SC(=O)C=C1OC(=O)OC (racemic) | 10.7 µg/mL (≈ 35.6 µM) | 21.6 ± 0.2 µg/mL (≈ 71.9 µM) | 65 µg/mL (≈ 216 µM) | 296 µg/mL (≈ 985 µM) | Neg | Neg | Neg | 64 µg/mL (≈ 213 µM) | 41 µg/mL (≈ 136 µM) |  | 73 µg/mL (≈ 243 µM) |  |  | change in vivo at 60 mg/kg ([3]; 24 h, day1): 7.65%
C=CCOC(=O)OC1=CC(=O)S[C@]1(C)CCCCCCCC (racemic) | 14.2 µg/mL (≈ 43.5 µM) | 34.9 ± 10 µg/mL (≈ 107 µM) | 75 µg/mL (≈ 230 µM) | 82 µg/mL (≈ 251 µM) |  | Neg | Neg | 57 µg/mL (≈ 175 µM) | 28 µg/mL (≈ 85.8 µM) |  | 79 µg/mL (≈ 242 µM) | 6.2% | 87 µg/mL (≈ 266 µM) | change in vivo at 30 mg/kg ([3]; 48 h): 1%
CCCCCCCC[C@@]1(C)SC(=O)C(C(C)=O)=C1O (racemic) | 12.1 ± 0.1 µg/mL (≈ 42.5 µM) | 125 ± 0.7 µg/mL (≈ 439 µM) | 2 µg/mL (≈ 7.03 µM) |  |  | Neg | Neg | 3.4 µg/mL (≈ 12 µM) | 1.4 µg/mL (≈ 4.92 µM) | Neg | 2.5 µg/mL (≈ 8.79 µM) | 8.2% | 177 µg/mL (≈ 622 µM) | 
